Test results as given in publication PMC11123956, “Nobiletin Stimulates Adrenal Hormones and Modulates the Circadian Clock in Mice” (Nutrients, 2024).

Assays:
[1] = tested on: serum corticosterone; test: Serum corticosterone ELISA after i.p. injection; format: in vivo, mice; conditions: 100 mg/kg i.p. at ZT3, 1 h after administration
Description: Male C57BL/6J mice (7 weeks old) were purchased from Charles River Japan (Kanagawa, Japan) and used for the serum hormone assay and RT-PCR. Male ICR mice were purchased from Tokyo Laboratory Animals Science Co., Ltd. (Tokyo, Japan), and female PERIOD2::LUCIFERASE (PER2::LUC) knock-in mice (ICR background) bred at Waseda University were used for blood glucose measurements and in vivo imaging assays, respectively. The mice were all housed under conditions of controlled temperature (23 °C ± 3 °C), humidity (50% ± 20%), and lighting (lights on from 07:00 to 19:00 at Taisho Pharmaceutical Co., Ltd. or from 08:00 to 20:00 at Waseda University). In the 24 h cycle, Zeitgeber time 0 (ZT0) was designated as the time when the lights were turned on, and ZT12 was designated as the time when the lights were turned off. […]
Serum corticosterone, adrenaline, and adreno-corticotropic hormone (ACTH) levels, and corticotropin releasing factor (CRF) in the hypothalamus, were measured using enzyme-linked immunosorbent assay (ELISA). […] Blood glucose levels were measured using a Glucose PILOT kit (Aventir Biotech, LLC, Carlsbad, CA, USA). The range of blood glucose that could be precisely measured with the kit was 20–600 mg/dL. […]

[2] = tested on: Bmal1 mRNA; test: Real-time RT-PCR of Bmal1 mRNA in peripheral tissues; format: in vivo, mice; conditions: after a single treatment
Description: Male C57BL/6J mice (7 weeks old) were purchased from Charles River Japan (Kanagawa, Japan) and used for the serum hormone assay and RT-PCR. Male ICR mice were purchased from Tokyo Laboratory Animals Science Co., Ltd. (Tokyo, Japan), and female PERIOD2::LUCIFERASE (PER2::LUC) knock-in mice (ICR background) bred at Waseda University were used for blood glucose measurements and in vivo imaging assays, respectively. The mice were all housed under conditions of controlled temperature (23 °C ± 3 °C), humidity (50% ± 20%), and lighting (lights on from 07:00 to 19:00 at Taisho Pharmaceutical Co., Ltd. or from 08:00 to 20:00 at Waseda University). In the 24 h cycle, Zeitgeber time 0 (ZT0) was designated as the time when the lights were turned on, and ZT12 was designated as the time when the lights were turned off. All the mice were given access to food and tap water ad libitum, and nobiletin (10–100 mg/kg; purchased from FUJIFILM Wako Pure Chemical Corporation, Osaka, Japan) was administered by intraperitoneal (i.p.) injection in the vehicle (10 mL/kg body weight) containing 0.5% carboxymethyl cellulose (CMC). Rolipram (PDE4 inhibitor, FUJIFILM Wako Pure Chemical Corporation) and SR1078 (RORα/γ agonist, FUJIFILM Wako Pure Chemical Corporation) were also used for the experiment at 10 mg/kg in 0.5% CMC [12]. Mice were euthanized by rapid decapitation for whole blood samples.
Figure 3 Nobiletin stimulated adrenaline and corticosterone secretion, and induced acute clock gene expression changes. (A–C) Mice received intraperitoneal injections of control (0.5% CMC) or nobiletin (10 or 100 mg/kg) at ZT3. (A) Serum corticosterone at 1 h after treatment (n = 6 in each). $$$ p < 0.001 by Tukey’s multiple comparisons test. (B) Serum corticosterone and adrenaline at 1, 2, and 4 h after treatment (n = 4 in each). # p < 0.05 vs. control at each time point by Mann–Whitney test; ** p < 0.01 vs. control at each time point by Student’s t-test. (C) Blood glucose changes after treatment (n = 9 in each). Statistics of 2-way repeated ANOVA are indicated on the graph. […]

[3] = set-up: method as in doi:10.1016/j.jddst.2022.104013; conditions: rats; cited from earlier work

COc1ccc(-c2cc(=O)c3c(OC)c(OC)c(OC)c(OC)c3o2)cc1OC [nobiletin]
serum corticosterone levels [1]: increase | Bmal1 expression [2]: did not change significantly | time of the highest plasma concentration [3]: 2 to 4 h
